Results published in patent US10597352B1, “Stable alkyl benzidine composition and methods of making and using same” (OneStep Technologies Inc., priority 2019, dated 2020).

Assay: Stability evaluation of alkyl benzidine solutions on storage at a stated temperature (method not described)
Type: physicochemical
Protocol: In one example, a solution of TMB prepared in polyethylene glycol in accordance with Example 1.0 was evaluated for stability. It was determined that the solution was stable at room temperature (i.e. 22° C.) for a period of at least two years. It was further determined that the solution was stable at 37° C. for a period of at least two months.

Cc1cc(-c2cc(C)c(NCCCS(=O)(=O)O)c(C)c2)cc(C)c1N [N-(3-sulfopropyl)-3,3′,5,5′-tetramethylbenzidine]
stability of compositions produced with the tetraalkyl benzidine compound (in words): stable compositions
